# ChEMBL document CHEMBL5579852, “Promising anti-proliferative indolic benzenesulfonamides alter mechanisms with sulfonamide nitrogen substituents” (Eur J Med Chem, 2024)
# The source made the active and inactive calls. The rule behind the calls is not given here.
# Columns and labels:
# [1] = Antiproliferative activity against human HEK293 cells assessed as reduction in cell viability incubated for 72 hrs by CelltiterGlo luminescent assay; format: toxicity, cell-based
# [2] = Antiproliferative activity against human Melmet 5 cells assessed as reduction in cell viability incubated for 72 hrs by CelltiterGlo luminescent assay; conditions: Melmet 5, 72 h
# cells = conditions: Homo sapiens, MDA-MB-468, 72 h
# HT-1080 = test: Antiproliferative activity against human HT-1080 cells assessed as reduction in cell viability incubated for 72 hrs by CelltiterGlo luminescent assay; conditions: HT-1080, 72 h
# CAKI-1 = test: Antiproliferative activity against human CAKI-1 cells assessed as reduction in cell viability incubated for 72 hrs by CelltiterGlo luminescent assay; conditions: CAKI-1, 72 h
# HeLa [3] = test: Antiproliferative activity against human HeLa cells assessed as inhibition of cell growth incubated for 72 hrs in absence of verapamil by MTT assay; format: functional, cell-based
# A-375 = test: Antiproliferative activity against human A-375 cells assessed as reduction in cell viability incubated for 72 hrs by CelltiterGlo luminescent assay; conditions: A-375, 72 h
# HeLa [4] = test: Antiproliferative activity against human HeLa cells assessed as inhibition of cell growth incubated for 72 hrs in presence of verapamil by MTT assay; format: functional, cell-based
# MES-SA [5] = test: Antiproliferative activity against human MES-SA cells assessed as reduction in cell viability incubated for 72 hrs by CelltiterGlo luminescent assay
# BT-474 = test: Antiproliferative activity against human BT-474 cells assessed as reduction in cell viability incubated for 72 hrs by CelltiterGlo luminescent assay; conditions: BT-474, 72 h
# [6] = Antiproliferative activity against human Hermes 3C cells assessed as reduction in cell viability incubated for 72 hrs by CelltiterGlo luminescent assay; format: toxicity, cell-based
# [7] = Antiproliferative activity against human WM1366 cells assessed as reduction in cell viability incubated for 72 hrs by CelltiterGlo luminescent assay; conditions: WM1366, 72 h
# MDA-MB-468 = test: cells; conditions: Homo sapiens, MDA-MB-468, 72 h
# Description: Antiproliferative activity against human MDA-MB-468 cells assessed as reduction in cell viability incubated for 72 hrs by CelltiterGlo luminescent assay
# [8] = Antiproliferative activity against human RPE-1 cells assessed as reduction in cell viability incubated for 72 hrs by CelltiterGlo luminescent assay; format: toxicity, cell-based; conditions: RPE-1 cells (TERT-RPE1)
# HeLa [9] = test: Antiproliferative activity against human HeLa cells assessed as reduction in cell viability incubated for 72 hrs by CelltiterGlo luminescent assay; format: functional, cell-based
# MCF7 = test: Antiproliferative activity against human MCF7 cells assessed as reduction in cell viability incubated for 72 hrs by CelltiterGlo luminescent assay; format: functional, cell-based; conditions: MCF7, 72 h
# HeLa [10] = test: Antiproliferative activity against human HeLa cells assessed as reduction in cell viability incubated for 72 hrs by MTT assay; format: functional, cell-based
# MES-SA [11] = test: Induction of apoptosis in human MES-SA cells assessed as late apoptotic cells at 100 nM incubated for 24 hrs by live/dead orange and TUNEL staining based flow cytometry analysis relative to control; format: functional
# MES-SA [12] = test: Induction of apoptosis in human MES-SA cells assessed as increase in caspase 3/7 activation at 100 nM by live-cell imaging based fluorescence assay; format: functional; conditions: time 3.0 day, TDE = time-dependent effect
# MES-SA [13] = test: Cell cycle distribution in human MES-SA cells assessed as accumulation of cells in G2 phase cells at 100 nM incubated for 24 hrs by Hoechst 33258 staining based flow cytometry (reference value: 12 %); format: functional
# MES-SA [14] = test: Induction of apoptosis in human MES-SA cells assessed as necrotic cells at 100 nM incubated for 24 hrs by live/dead orange and TUNEL staining based flow cytometry analysis relative to control; format: functional
# MES-SA [15] = test: Induction of apoptosis in human MES-SA cells assessed as apoptotic cells at 100 nM incubated for 24 hrs by live/dead orange and TUNEL staining based flow cytometry analysis relative to control; format: functional
# MES-SA [16] = test: Cell cycle distribution in human MES-SA cells assessed as accumulation of cells in S phase cells at 100 nM incubated for 24 hrs by Hoechst 33258 staining based flow cytometry (reference value: 27 %); format: functional
# MES-SA [17] = test: Cell cycle distribution in human MES-SA cells assessed as accumulation of cells in G2/M phase cells at 100 nM incubated for 24 hrs by Hoechst 33258 staining based flow cytometry (reference value: 13.3 %); format: functional
# MES-SA [18] = test: Cell cycle distribution in human MES-SA cells assessed as accumulation of cells in M phase cells at 100 nM incubated for 24 hrs by Hoechst 33258 staining based flow cytometry (reference value: 1.3 %); format: functional
# MES-SA [19] = test: Cell cycle distribution in human MES-SA cells assessed as accumulation of cells in G1 phase cells at 100 nM incubated for 24 hrs by Hoechst 33258 staining based flow cytometry (reference value: 60%); format: functional
# MES-SA [20] = test: Induction of apoptosis in human MES-SA cells assessed as live cells at 100 nM incubated for 24 hrs by live/dead orange and TUNEL staining based flow cytometry analysis relative to control; format: functional
# Tubulin (Homo sapiens) = Tubulin (Homo sapiens) (UniProt P68371+Q9H4B7+P0DPH7+P68366+Q13509+Q71U36+P04350+Q3ZCM7+P07437+P68363+Q9BQE3+Q6PEY2+Q13885+Q9BVA1+Q9BUF5); test: Inhibition of tubulin polymerization in human MES-SA cells assessed as appearance of spherical shaped cells at 10 nM incubated for 24 hrs by DAPI staining based confocal microscopy analysis; format: cell-based
SMILES,IC50 (cells) [nM],IC50 (HT-1080) [nM],IC50 (HeLa [3]) [nM],IC50 (A-375) [nM],IC50 (HeLa [4]) [nM],IC50 (BT-474) [nM],IC50 (MDA-MB-468) [nM],IC50 (HeLa [9]) [nM],IC50 (MCF7) [nM],IC50 (HeLa [10]) [nM],IC50 at 72 h [1] [nM],IC50 [2] [nM],IC50 (CAKI-1) [nM],IC50 (MES-SA [5]) [nM],IC50 at 72 h [6] [nM],IC50 [7] [nM],IC50 at 72 h [8] [nM],further results
COc1cc(S(=O)(=O)Nc2ccc3c(c2)c(C(N)=O)cn3C)cc(OC)c1OC,284,69.2,102,245,55.4,126,101,93,108,102,492,29.5,310,99.9,466,278,173,
COc1cc(S(=O)(=O)N(C)c2ccc3c(c2)c(C=O)cn3C)cc(OC)c1OC,32.9,8.1,18.4,8.7,14.6,10.6,17.2,5.3,9.3,16.5,50.2,3.9,12.9,17.9,52.8,11.6,12,
COc1cc(S(=O)(=O)N(C)c2ccc3c(c2)c(C(N)=O)cn3C)cc(OC)c1OC,70.8,14.3,24.3,22.8,18.2,17.9,26,13.9,44,15,92.2,12.2,29.6,12.2,31.8,21.3,22.7,Activity (MES-SA [11]): 1.6%; Activity (MES-SA [12]): Tde; Activity (MES-SA [13]): 10%; Activity (MES-SA [14]): 1.8%; Activity (MES-SA [15]): 4.8%; Activity (MES-SA [16]): 6%; Activity (MES-SA [17]): 83.6%; Activity (MES-SA [18]): 75.3%; Activity (MES-SA [19]): 4%; Activity (MES-SA [20]): 91.8%; inhibition (Tubulin (Homo sapiens)): Active
COc1cc(S(=O)(=O)N(CC#N)c2ccc3c(c2)c(C(N)=O)cn3C)cc(OC)c1OC,72.9,16.6,50.9,48.3,26.4,40.8,20.3,68.8,48.6,50.9,282,16.2,98.3,14.2,88.5,36,33,
COc1cc(S(=O)(=O)Nc2ccc3c(ccn3C)c2)cc(OC)c1OC,29.6,5.6,22.9,6.4,17.9,46.1,4.5,3.9,1.4,5.3,4.9,1.4,4,5.6,61,7.1,5.7,Activity (MES-SA [11]): 0.8%; Activity (MES-SA [12]): Tde; Activity (MES-SA [13]): 29%; Activity (MES-SA [14]): 4.7%; Activity (MES-SA [15]): 4.2%; Activity (MES-SA [16]): 6%; Activity (MES-SA [17]): 83.6%; Activity (MES-SA [18]): 56.8%; Activity (MES-SA [19]): 4%; Activity (MES-SA [20]): 90.3%; inhibition (Tubulin (Homo sapiens)): inactive
COc1cc(S(=O)(=O)N(CC#N)c2ccc3c(c2)c(C#N)cn3C)cc(OC)c1OC,34.4,65.8,34.5,86.8,27.2,71.1,31.6,77.3,60.8,24.4,17.7,32.3,29.5,80.3,70.5,81.3,76.3,
COc1cc2c(c(OC)c1OC)-c1ccc(OC)c(=O)cc1[C@@H](NC(C)=O)CC2 [COLCHICINE],,,16.7,,9.3,,,,,,,,,,,,,
COc1cc(S(=O)(=O)N(CC#N)c2ccc3c(c2)c(C=O)cn3C)cc(OC)c1OC,14.7,14,57.4,49.8,52.4,66.4,15.2,18.4,15.3,22.7,70.9,12.5,66.2,32.5,81.3,31.4,41.3,

# Now from value to molecule, other results behind:
IC50 (cells) [nM],IC50 (HT-1080) [nM],IC50 (HeLa [3]) [nM],IC50 (A-375) [nM],IC50 (HeLa [4]) [nM],IC50 (BT-474) [nM],IC50 (MDA-MB-468) [nM],IC50 (HeLa [9]) [nM],IC50 (MCF7) [nM],IC50 (HeLa [10]) [nM],SMILES,IC50 at 72 h [1] [nM],IC50 [2] [nM],IC50 (CAKI-1) [nM],IC50 (MES-SA [5]) [nM],IC50 at 72 h [6] [nM],IC50 [7] [nM],IC50 at 72 h [8] [nM],further results
145,104,123,363,105,792,161,108,347,109,CCN(c1ccc2c(ccn2C)c1)S(=O)(=O)c1cc(OC)c(OC)c(OC)c1,323,96.2,158,148,965,517,335,
,0.1,,0.6,,0.3,0.1,0.3,0.8,,CCC1=C[C@@H]2CN(C1)Cc1c([nH]c3ccccc13)[C@@](C(=O)OC)(c1cc3c(cc1OC)N(C)[C@H]1[C@@](O)(C(=O)OC)[C@H](OC(C)=O)[C@]4(CC)C=CCN5CC[C@]31[C@@H]54)C2 [VINORELBINE],15.9,0.1,0.3,0.4,0.5,0.9,9.3,
,0.3,,3.5,,2.9,0.4,1,4.2,,CC[C@]1(O)C[C@H]2CN(CCc3c([nH]c4ccccc34)[C@@](C(=O)OC)(c3cc4c(cc3OC)N(C=O)[C@H]3[C@@](O)(C(=O)OC)[C@H](OC(C)=O)[C@]5(CC)C=CCN6CC[C@]43[C@@H]65)C2)C1 [VINCRISTINE],25.8,0.2,5.7,4.9,2.8,4.5,7.6,inhibition (Tubulin (Homo sapiens)): Active
8.3,1.5,,4.5,,21.4,3.1,1,3.9,,CC(=O)O[C@@]12CO[C@@H]1C[C@H](O)[C@@]1(C)C(=O)[C@H](O)C3=C(C)[C@@H](OC(=O)[C@H](O)[C@@H](NC(=O)OC(C)(C)C)c4ccccc4)C[C@@](O)([C@@H](OC(=O)c4ccccc4)[C@H]21)C3(C)C [DOCETAXEL ANHYDROUS],7.5,9.5,2.7,3.4,1.7,8.5,8.2,
